Experimental data: patent publication US20180048011A1, “HIGH pH ORGANIC FLOW BATTERY” (President and Fellows of Harvard College, priority 2015, published 2018)
“And” between values parts separate entries of the source, which are not always exact repeats. Equal entries are not always repeated.

How the values were obtained:
Type in all cases: physicochemical
[1] = Three-electrode cyclic voltammetry of quinones in 1 M KOH (incl. Pourbaix diagram); conditions: for equilibrium cell potential vs. ferro/ferricyanide suggested by cyclic voltammograms: 1 M KOH, 100 mV/s, glassy carbon electrode; for equilibrium potential of couple with ferrocyanide compared with 2,6-DHAQ/ferrocyanide: CV at 100 mV/s on glassy carbon electrode
Description: FIG. 1. Pourbaix diagram of 2,6-DHAQ. […] FIGS. 2a-d. a. Cyclic voltammogram of 2 mM 2,6-DHAQ (left curve) and ferrocyanide (right curve) scanned at 100 mV/s; arrows indicate scan direction. Dotted line represents cyclic voltammogram of 1 M KOH background scanned at 100 mV/s. b and c. Cyclic voltammograms of 2,3,6,7-THAQ (left curve in b) and 1,5-DMAQ (left curve in c), respectively, plotted along ferrocyanide (right curve) scanned at 100 mV/s on glassy carbon electrode.
Electrochemical characterization. A glassy carbon electrode was used for three-electrode cyclic voltammetry tests, except in the electrochemical window tests where graphite foil was used to mimic the condition of porous carbon paper. Rotating-disk electrode (RDE) experiments of 2,6-DHAQ (1 mM) in 1 M KOH solution were performed using a BASi RDE-2 rotating-disk electrode system (FIG. 3a). All tests were carried out using a Gamry Reference 3000 potentiostat, with a Pt counter electrode and an Ag/AgCI reference electrode (equilibrated with 3M NaCI, 213 mV vs. standard hydrogen electrode. A Levich plot was constructed from the RDE data by plotting the mass-transport limited current vs. the square root of the rotation rate (FIG. 3b). The diffusion coefficient of 2,6-DHAQ was calculated for each of three runs from the slope of the line fit to the Levich equation (Bard, A. J. & Faulkner, L. R. Electrochemical Methods: Fundamentals and Applications. (Wiley, 2000)). The kinematic viscosity was taken to be 1.08×10^−6 m^2 s^-1 (Hitchcock, L. B. & Mcllhenny, J. S. Ind. Eng. Chem. 27, 461-466 (1935)). The resulting value of the diffusion coefficient is 4.8(2) x 10^-6 cm^2 s^-1.

[2] = Crossover study: CV of ferro-ferricyanide posolyte after 100 charge-discharge cycles; conditions: for fraction of 2,6-DHAQ crossed over the membrane into the posolyte: Nafion membrane
Description: FIGS. 16a-16b. Test of electrolyte permeation through membrane. Full (a) and zoomed in (b) cyclic voltammograms of 0.4 M ferro-ferricyanide electrolyte after 100 charge-discharge cycles. Same posolyte to which was added 3.9 mM 2,6-DHAQ, and 7.6 mM 2,6-DHAQ.
Crossover study. The concentration of crossed-over 2,6-DHAQ into the ferro-ferricyanide posolyte solution was evaluated using CV. After 100 charge-discharge cycles, the ferro-ferricyanide posolyte solution (5 mL) was collected and analyzed by CV (scan at 100 mV/s. The correlation between the CV signal and 2,6-DHAQ concentration was established by titrating known amounts of 2,6-DHAQ (12 mg or […]) to the cycled posolyte followed by controlled dilution. The comparison indicates <10 mM 2,6-DHAQ had crossed over into the posolyte, which corresponds to <2% of the 2,6-DHAQ originally assembled into the negolyte.

[3] = Solubility measurement by UV-Vis absorbance at 413 nm; conditions: 1 M KOH solution, pH 14, aqueous buffer, thermodynamic from solid; room temperature, in 1 M KOH
Description: Solubility measurement. Room temperature solubility in 1 M KOH solution was measured by measuring the absorbance at 413 nm and comparing to an absorbance-vs.-concentration calibration curve determined by preparing known concentrations of 2,6-DHAQ. UV-Vis spectrophotometry measurements were performed using an Agilent Cary 60 spectrophotometer equipped with a Quantum
Northwest T2 temperature regulator. Appropriate aliquots of 2,6-DHAQ stock solution were added to 1 M KOH blank solution and their UV-Vis absorbance spectra measured. A saturated solution of 2,6-DHAQ in 1 M KOH was prepared by adding 2,6-DHAQ potassium salt into 1 M KOH solution (10 mL) until a thin layer of precipitate formed, the remaining solution was diluted by known proportions, and the absorbance of the resulting solution was compared to the calibration curve.

[4] = Rotating-disk electrode study / Levich plot; conditions: 1 mM in 1 M KOH, Levich equation, three runs
Description: FIGS. 3a-3d. a. Rotating disk electrode study of the reduction of a 1 mM solution of 2,6-DHAQ in 1 M KOH on a glassy carbon electrode at various rotation rates (curves from top to bottom in legend). b. Levich plot of 1 mM 2,6-DHAQ in 1 M KOH. Data are an average of the current at -1.187 V vs. SHE for each of three runs; error bars indicate the standard deviation. c. Cyclic voltammogram of 1 mM 2,6-DHAQ in 1 M KOH (solid line). Dashed lines represent simulated cyclic voltammograms of a two-electron reduction of varying electrochemical rate constant ko and a reduction potential Eo of -0.684 V vs. SHE. The simulations assumed a ═0.5. The scan rate in all cases was 25 mV s^-1. d. […]
Electrochemical characterization. […] All tests were carried out using a Gamry Reference 3000 potentiostat, with a Pt counter electrode and an Ag/AgCI reference electrode (equilibrated with 3M NaCI, 213 mV vs. standard hydrogen electrode. A Levich plot was constructed from the RDE data by plotting the mass-transport limited current vs. the square root of the rotation rate (FIG. 3b). The diffusion coefficient of 2,6-DHAQ was calculated for each of three runs from the slope of the line fit to the Levich equation (Bard, A. J. & Faulkner, L. R. Electrochemical Methods: Fundamentals and Applications. (Wiley, 2000)). The kinematic viscosity was taken to be 1.08×10^−6 m^2 s^-1 (Hitchcock, L. B. & Mcllhenny, J. S. Ind. […]

[5] = Cyclic voltammogram modeling (simulated fit to measured CV)
Description: FIGS. 3a-3d. a. Rotating disk electrode study of the reduction of a 1 mM solution of 2,6-DHAQ in 1 M KOH on a glassy carbon electrode at various rotation rates (curves from top to bottom in legend). b. Levich plot of 1 mM 2,6-DHAQ in 1 M KOH. Data are an average of the current at -1.187 V vs. SHE for each of three runs; error bars indicate the standard deviation. c. Cyclic voltammogram of 1 mM 2,6-DHAQ in 1 M KOH (solid line). Dashed lines represent simulated cyclic voltammograms of a two-electron reduction of varying electrochemical rate constant ko and a reduction potential Eo of -0.684 V vs. SHE. The simulations assumed a ═0.5. The scan rate in all cases was 25 mV s^-1. d. Cyclic voltammogram of 1 mM 2,6-DHAQ in 1 M KOH (solid line). Dashed lines represent the simulated components of two successive one-electron reductions with reduction potentials of -0.657 V vs. SHE and -0.717 V vs. SHE, respectively, as well as the simulated total current arising from such a reaction. Each simulated reduction has a rate constant ko ═7 x 10^-3 cm 5^-1. The simulations assumed a ═0.5.
Cyclic voltammogram modeling. Computation was performed using Mathematica 10.0.1.0 according to algorithms by Oldham and Myland (Oldham, K. B. & Myland, J. C. Electrochim. Acta 56, 10612-10625 (2011)). The diffusivity of 2,6-DHAQ and both the one-electron and two-electron reduction products were assumed to be 4.8 x 10^-6 cm^2 s^-1, based on our RDE studies. The temperature was 293 K. Time was discretized into 40 ms increments, and the current at each time was computed based on the sum of previous currents as described by Oldham (Oldham, K. B. & Myland, J. C. Electrochim. Acta 56, 10612-10625 (2011)).
To model the two-electron reduction process (FIG. 1), the Butler-Volmer equation with the number of electrons n ═2 was used in place of Oldham equation (4:5), and the right-hand-side of equation (8:3) was multiplied by 2 to account for a two-electron reduction (Bard, A. J. & Faulkner, L. R. Electrochemical Methods: Fundamentals and Applications. (Wiley, 2000); Oldham, K. B. & Myland, J. C. Electrochim. Acta 56, 10612-10625 (2011)). The reduction potential was assumed to be equal to the voltage equidistant from the two peaks on the measured cyclic voltammogram (-0.684 V vs. SHE) and the charge transfer coefficient a was assumed to be 0.5. The electrochemical rate constant ko was then varied from 10^-3 cm s^-1 to 10^-5 cm s^-1.
To model the two successive one-electron reductions (FIG. 3d), Oldham equations (12:13) and (12:14) were used (Oldham, K. B. & Myland, J. C. Electrochim. Acta 56, 10612-10625 (2011)). The charge transfer coefficients al and a2 were assumed to be equal to 0.5, and the electrochemical rate constants for the two reductions were assumed equal. The values of the single rate constant and the first and second reduction potentials were permitted to vary freely. A reasonable fit to the experimental data was observed when the reduction potential of the first reduction Ei ═-0.657 V vs. SHE, the reduction potential of the second reduction E2 ═-0.717 V vs. SHE, and the two electrochemical rate constants ko,i and ko,2 both equaled 7×10^−3 cm s^-1, a value very close to that observed in other anthraquinone systems (Huskinson, B. et al. Nature 505, 195-198 (2014)).

[6] = Chemical and electrochemical stability by proton NMR; conditions: sensitivity level of 1%; after 30 days in 5 M KOH at 100° C. and after 100 charge-discharge cycles (FIGS. 15a-c)
Description: FIGS. 15a-15c. Chemical and electrochemical stability of 2,6-DHAQ. ^1H NMR (500 MHz, DMSO-d6) spectra. a. 2,6-DHAQ 6: 8.04 (d, 2H, J═8.3 Hz, 2 x ArCH), 7.47 (d, 2H, J═2.5 Hz, 2 x ArCH), 7.19 (dd, 2H, J═8.3, 2.5 Hz, 2 x ArCH). b. 2,6-DHAQ, after 30 days heating in 5 M KOH solution at 100° C. c. 2,6-DHAQ, after 100 charge-discharge cycles.
The cell was cycled at a constant current density of ±0.1 A cm^-2 for 100 cycles (FIG. 14a). […] A 0.1% loss in capacity per cycle was observed during cycling, which appears to be a continuous loss of electro-active species over the 100 cycles (FIG. 14b). We explored three possible loss mechanisms: chemical decomposition, electrolyte crossover through the membrane, and leakage from the pumping system. […] This observation places an upper limit on crossover of 0.8% of the DHAQ, implying a crossover current density of <2.5 μA cm^-2 (FIGS. 16a and 16b). […] A source of leakage was readily apparent but not quantifiable at the exit of the humidified nitrogen bubbling through the negolyte to prevent energy loss by permeation of atmospheric oxygen. Coloration could also be found on the gaskets, indicating a likely site of electrolyte leakage (FIGS. 17a and 17b).

[7] = Cyclic voltammetry of FMN and ferrocyanide; conditions: 2 mM, 100 mV/s, glassy carbon electrode
Description: FIG. 5. Cyclic voltammogram of 2 mM FMN (left curve) and ferrocyanide (right curve) scanned at 100 mV/s on glassy carbon electrode; arrows indicate scan direction.
Before and during the test, the electrolytes were purged with UHP nitrogen to remove and then keep out atmospheric oxygen. […] Galvanostatic cycling shown in […]

[8] = after 100 charge-discharge cycles
[9] = 1 mM in 1 M KOH, simulated fit, two successive one-electron reductions

## Cc1c(O)ccc2c1C(=O)c1ccc(O)c(C)c1C2=O [1,5-DMAQ, 1,5-dimethyl-2,6-dihydroxy-9,10-anthraquinone]
[1]
  equilibrium cell potential vs. ferro/ferricyanide suggested by cyclic voltammograms: ~1.35 V
  equilibrium potential of couple with ferrocyanide compared with 2,6-DHAQ/ferrocyanide: higher equilibrium potential than 2,6-DHAQ/ferrocyanide

## O=C1c2cc(O)c(O)cc2C(=O)c2cc(O)c(O)cc21 [2,3,6,7-THAQ, 2,3,6,7-tetrahydroxy-9,10-anthraquinone]
[1]
  equilibrium cell potential vs. ferro/ferricyanide suggested by cyclic voltammograms: ~1.35 V
  equilibrium potential of couple with ferrocyanide compared with 2,6-DHAQ/ferrocyanide: higher equilibrium potential than 2,6-DHAQ/ferrocyanide

## O=C1c2ccc(O)cc2C(=O)c2ccc(O)cc21 [2,6-DHAQ, 2,6-dihydroxy-9,10-anthraquinone]
[2]; [8]
  concentration of 2,6-DHAQ crossed over into the posolyte: < 10000 µM
  fraction of 2,6-DHAQ crossed over the membrane into the posolyte: < 1% and < 2%
[2]; after 100 charge-discharge cycles, listed as DHAQ
  fraction of 2,6-DHAQ crossed over the membrane into the posolyte: ≤ 0.8%
[2]; implied by crossover upper limit
  crossover current density: < 2.5 μA cm^-2
[3]
  solubility: > 600 mM
[1]
  equilibrium cell potential vs. ferro/ferricyanide suggested by cyclic voltammograms: 1.2 V
[4]
  diffusion coefficient: 4.8(2) x 10^-6 cm^2 s^-1
[5]; 1 mM in 1 M KOH, two-electron reduction model
  reduction potential E0 (voltage equidistant from the two CV peaks): -0.684 V vs. SHE
[5]; [9]
  reduction potential of the first one-electron reduction: -0.657 V vs. SHE
  reduction potential of the second one-electron reduction: -0.717 V vs. SHE
[5]; FIG. 3d legend, simulated fit
  rate constant ko of each simulated reduction: 7 x 10^-3 cm 5^-1
[5]; pH 14
  separation of the potentials of the two one-electron reductions: 0.06 V
[5]; simulated fit, charge transfer coefficient 0.5
  electrochemical rate constant k0 (both reductions): 0.007 cm/s
[6]
  decomposition by proton NMR: no decomposition product

## Cc1cc2nc3c(=O)[nH]c(=O)nc-3n(C[C@@H](O)[C@@H](O)[C@@H](O)COP(=O)(O)O)c2cc1C [FMN, riboflavin 5′ phosphate]
[7]
  overall peak separation of cyclic voltammograms vs. ferrocyanide: 1 V
